The test system of the test is Bovine cardiac myofibrils. The test can be described thus: In vitro model of dose-dependent myofibril ATPase modulation (AC1.4, pyruvate kinase/lactate dehydrogenase-coupled ATPase assay at pCa25). It counts as biochemical. The conditions noted are these: concentration at which ATPase activity was 1.4-fold higher than the bottom of the dose curve, mean of a minimum of two independent tests. Summed up:
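Coupled-enzyme ATPase on bovine heart myofibrils, 1 mM ATP, EGTA/CaCl2 buffered; 340 nm readout.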

The compound `O=C(NCc1ccc(C(F)(F)F)cc1)[C@H]1CCCN1C(=O)c1cccc(S(=O)(=O)N2CC3(CC3)C2)c1` [Example 350, 1-((3-(5-azaspiro[2.3]hex-5-ylsulfonyl)phenyl)carbonyl)-N-(4-(trifluoromethyl)benzyl)-D-prolinamide] displayed an AC1.4 of 1.0349 µM.
`O=C(N[C@@H](c1ccc(C(F)(F)F)cc1F)C1COC1)[C@H]1C[C@H]2C[C@H]2N1C(=O)c1ccccc1NC(=O)C(F)(F)F` [Example 351, (1R,3R,5R)-N-((R)-(2-fluoro-4-(trifluoromethyl)phenyl)(3-oxetanyl)methyl)-2-(2-(2,2,2-trifluoroacetamido)benzoyl)-2-azabicyclo[3.1.0]hexane-3-carboxamide] gave an AC1.4 of 1.0354 µM.
`CS(=O)(=O)c1cccc(C(=O)N2C[C@@H](F)C[C@@H]2C(=O)N[C@@H](c2ccc(Cl)cc2F)C2COC2)c1` [Example 352, (4S)-N-((R)-(4-chloro-2-fluorophenyl)(3-oxetanyl)methyl)-4-fluoro-1-(3-(methylsulfonyl)benzoyl)-D-prolinamide] gave an AC1.4 of 0.9758 µM.
The compound `N#CC1CN(S(=O)(=O)N2CCC[C@H](C(=O)N3CCC[C@@H]3C(=O)NCc3cccc(C(F)(F)F)c3)C2)C1` [Example 353, 1-(((3S)-1-((3-cyano-1-azetidinyl)sulfonyl)-3-piperidinyl)carbonyl)-N-(3-(trifluoromethyl)benzyl)-D-prolinamide] came in with an AC1.4 of 1.0398 µM.
The same measure for `CS(=O)(=O)c1cccc(C(=O)N2C[C@H](C(F)F)C[C@@H]2C(=O)N[C@@H](c2ccc(C(F)(F)F)cc2F)C2CC2)c1` [Example 354, (4R)-N-((R)-cyclopropyl(2-fluoro-4-(trifluoromethyl)phenyl)methyl)-4-(difluoromethyl)-1-(3-(methylsulfonyl)benzoyl)-D-prolinamide]: 1.0425 µM; for `N#C[C@H]1C[C@H](S(=O)(=O)c2cccc(C(=O)N3CCCC[C@@H]3C(=O)NCc3ccc(C(F)(F)F)nc3)c2)C1` [Example 355, (2R)-1-((3-((trans-3-cyanocyclobutyl)sulfonyl)phenyl)carbonyl)-N-((6-(trifluoromethyl)-3-pyridinyl)methyl)-2-piperidinecarboxamide]: 1.0472 µM; for `N#CC1CN(S(=O)(=O)N2CCC[C@H](C(=O)N3CCC[C@@H]3C(=O)NCc3cc(F)cc(F)c3F)C2)C1` [Example 356, 1-(((3S)-1-((3-cyano-1-azetidinyl)sulfonyl)-3-piperidinyl)carbonyl)-N-(2,3,5-trifluorobenzyl)-D-prolinamide]: 1.0535 µM.
`Cc1cc(CNC(=O)[C@H]2CCCN2C(=O)[C@H]2CCCN(S(=O)(=O)N3CC(C#N)C3)C2)cc(C(F)(F)F)c1` [Example 358, 1-(((3S)-1-((3-cyano-1-azetidinyl)sulfonyl)-3-piperidinyl)carbonyl)-N-(3-methyl-5-(trifluoromethyl)benzyl)-D-prolinamide] yielded an AC1.4 of 1.0947 µM.
The same measure for `NS(=O)(=O)c1cccc(C(=O)N2CCCC[C@@H]2C(=O)N[C@@H](c2ccc(C(F)(F)F)cc2F)C2CC2)c1` [Example 359, (2R)-N-((R)-cyclopropyl(2-fluoro-4-(trifluoromethyl)phenyl)methyl)-1-(3-sulfamoylbenzoyl)-2-piperidinecarboxamide]: 1.1055 µM; for `N#CC1CN(S(=O)(=O)N2CCC[C@H](C(=O)N3CCC[C@@H]3C(=O)NCc3ccc(F)cc3F)C2)C1` [Example 360, 1-(((3S)-1-((3-cyano-1-azetidinyl)sulfonyl)-3-piperidinyl)carbonyl)-N-(2,4-difluorobenzyl)-D-prolinamide]: 1.11 µM; for `O=C(N[C@@H](c1cc(F)c(C(F)(F)F)cc1F)C1CC1)[C@H]1C[C@H]2C[C@H]2N1C(=O)c1cncc(C(F)(F)F)c1` [Example 361, (1R,3R,5R)-N-((R)-cyclopropyl(2,5-difluoro-4-(trifluoromethyl)phenyl)methyl)-2-((5-(trifluoromethyl)-3-pyridinyl)carbonyl)-2-azabicyclo[3.1.0]hexane-3-carboxamide]: 1.1125 µM.
As for `CS(=O)(=O)c1cncc(C(=O)N2CCC[C@@H]2C(=O)N[C@@H](c2cc(F)c(Cl)cc2F)C2CC2)c1` [Example 362, N-((R)-(4-chloro-2,5-difluorophenyl)(cyclopropyl)methyl)-1-((5-(methylsulfonyl)-3-pyridinyl)carbonyl)-D-prolinamide], the AC1.4 was 1.0375 µM.
`CN(Cc1ccc(C(F)(F)F)cc1)C(=O)[C@H]1CCCN1C(=O)[C@H]1CCCN(S(=O)(=O)N2CC(C#N)C2)C1` [Example 363, 1-(((3S)-1-((3-cyano-1-azetidinyl)sulfonyl)-3-piperidinyl)carbonyl)-N-methyl-N-(4-(trifluoromethyl)benzyl)-D-prolinamide]: the AC1.4 came to 1.143 µM.
With `CS(=O)(=O)c1cccc(C(=O)N2C[C@@H](F)C[C@@H]2C(=O)N[C@@H](c2ccc(Cl)c(F)c2)C2COC2)c1` [Example 365, (4S)-N-((R)-(4-chloro-3-fluorophenyl)(3-oxetanyl)methyl)-4-fluoro-1-(3-(methylsulfonyl)benzoyl)-D-prolinamide], the AC1.4 came to 1.139 µM.
For the compound `N#Cc1cccc(C(=O)N2[C@@H](C(=O)N[C@@H](c3ccc(C(F)(F)F)cc3F)C3COC3)C[C@H]3C[C@H]32)c1` [Example 366, (1R,3R,5R)-2-(3-cyanobenzoyl)-N-((R)-(2-fluoro-4-(trifluoromethyl)phenyl)(3-oxetanyl)methyl)-2-azabicyclo[3.1.0]hexane-3-carboxamide], the AC1.4 is 1.1445 µM.
`O=C(NCc1ccc(C(F)(F)F)cc1)[C@H]1CCCN1C(=O)[C@H]1CCCN(S(=O)(=O)N2CC(n3cccc3)C2)C1` [Example 367, 1-(((3S)-1-((3-(1H-pyrrol-1-yl)-1-azetidinyl)sulfonyl)-3-piperidinyl)carbonyl)-N-(4-(trifluoromethyl)benzyl)-D-prolinamide] came in with an AC1.4 of 1.1962 µM.
With `CC1(O)CN(S(=O)(=O)c2cccc(C(=O)N3CCC[C@@H]3C(=O)NCc3ccc(C(F)(F)F)cc3F)c2)C1` [Example 368, N-(2-fluoro-4-(trifluoromethyl)benzyl)-1-(3-((3-hydroxy-3-methyl-1-azetidinyl)sulfonyl)benzoyl)-D-prolinamide], the AC1.4 is 1.2 µM.
`O=C(N[C@@H](c1ccc(C(F)(F)F)cc1F)C1CC1)[C@H]1CCCN1C(=O)c1cccc(C2CC2)c1` [Example 369, 1-(3-cyclopropylbenzoyl)-N-((R)-cyclopropyl(2-fluoro-4-(trifluoromethyl)phenyl)methyl)-D-prolinamide] returned an AC1.4 of 1.1795 µM.
For `O=C(NCc1ccc(C(F)(F)F)cc1)[C@H]1CCCN1C(=O)[C@H]1CCCN(S(=O)(=O)N2CC(O)(c3ccccc3)C2)C1` [Example 371, 1-(((3S)-1-((3-hydroxy-3-phenyl-1-azetidinyl)sulfonyl)-3-piperidinyl)carbonyl)-N-(4-(trifluoromethyl)benzyl)-D-prolinamide], the AC1.4 is 1.216 µM.
`CC(=O)Nc1ccccc1C(=O)N1[C@@H](C(=O)N[C@@H](c2ccc(C(F)(F)F)cc2F)C2CC2)C[C@H]2C[C@H]21` [Example 372, (1R,3R,5R)-2-(2-acetamidobenzoyl)-N-((R)-cyclopropyl(2-fluoro-4-(trifluoromethyl)phenyl)methyl)-2-azabicyclo[3.1.0]hexane-3-carboxamide]: the AC1.4 came out at 1.2085 µM.
The figure for `N#CC1CN(S(=O)(=O)N2CCC[C@H](C(=O)N3CCC[C@@H]3C(=O)NCc3ccc(C(F)(F)F)cn3)C2)C1` [Example 373, 1-(((3S)-1-((3-cyano-1-azetidinyl)sulfonyl)-3-piperidinyl)carbonyl)-N-((5-(trifluoromethyl)-2-pyridinyl)methyl)-D-prolinamide] is 1.2258 µM.
The same measure for `O=C(N[C@@H](c1cc(F)c(Cl)cc1F)C1CC1)[C@H]1C[C@H]2C[C@H]2N1C(=O)c1cncc(C(F)(F)F)c1` [Example 374, (1R,3R,5R)-N-((R)-(4-chloro-2,5-difluorophenyl)(cyclopropyl)methyl)-2-((5-(trifluoromethyl)-3-pyridinyl)carbonyl)-2-azabicyclo[3.1.0]hexane-3-carboxamide]: 1.2265 µM.
The compound `CS(=O)(=O)c1cccc(C(=O)N2[C@@H](C(=O)N[C@@H](c3ccc(C(F)(F)F)cc3)C3COC3)C[C@H]3C[C@H]32)c1` [Example 375, (1R,3R,5R)-2-(3-(methylsulfonyl)benzoyl)-N-((R)-3-oxetanyl(4-(trifluoromethyl)phenyl)methyl)-2-azabicyclo[3.1.0]hexane-3-carboxamide] had an AC1.4 of 1.2153 µM.
`N#CC1CN(S(=O)(=O)c2cccc(C(=O)N3CCC[C@@H]3C(=O)NCc3ncc(Cl)s3)c2)C1` [Example 376, N-((5-chloro-1,3-thiazol-2-yl)methyl)-1-((3-((3-cyano-1-azetidinyl)sulfonyl)phenyl)carbonyl)-D-prolinamide] displayed an AC1.4 of 1.2296 µM.
As for `CS(=O)(=O)c1cccc(C(=O)N2C=CC[C@@H]2C(=O)N[C@@H](c2ccc(C(F)(F)F)cc2F)C2CC2)c1` [Example 377, (2R)—N—((R)-cyclopropyl(2-fluoro-4-(trifluoromethyl)phenyl)methyl)-1-(3-(methylsulfonyl)benzoyl)-2,3-dihydro-1H-pyrrole-2-carboxamide], the AC1.4 worked out at 1.216 µM.
`O=C(N[C@@H](c1ccc(C(F)(F)F)cc1F)C1CC1)[C@H]1CCCN1C(=O)c1cccc(Cl)c1` [Example 378, 1-(3-chlorobenzoyl)-N-((R)-cyclopropyl(2-fluoro-4-(trifluoromethyl)phenyl)methyl)-D-prolinamide] showed an AC1.4 of 1.227 µM.
In turn, `N#CC1CN(S(=O)(=O)N2CCC[C@H](C(=O)N3CCC[C@@H]3C(=O)NCc3cc(F)cc(C(F)(F)F)c3)C2)C1` [Example 379, 1-(((3S)-1-((3-cyano-1-azetidinyl)sulfonyl)-3-piperidinyl)carbonyl)-N-(3-fluoro-5-(trifluoromethyl)benzyl)-D-prolinamide] came in with an AC1.4 of 1.237 µM.
